Biological target: T1, Recombinant Hepatic Lipase (Homo sapiens, UniProt P11150)
T1 construct: made in house; host or cells: AV12 cells
T1 sequence (P11150 23-499): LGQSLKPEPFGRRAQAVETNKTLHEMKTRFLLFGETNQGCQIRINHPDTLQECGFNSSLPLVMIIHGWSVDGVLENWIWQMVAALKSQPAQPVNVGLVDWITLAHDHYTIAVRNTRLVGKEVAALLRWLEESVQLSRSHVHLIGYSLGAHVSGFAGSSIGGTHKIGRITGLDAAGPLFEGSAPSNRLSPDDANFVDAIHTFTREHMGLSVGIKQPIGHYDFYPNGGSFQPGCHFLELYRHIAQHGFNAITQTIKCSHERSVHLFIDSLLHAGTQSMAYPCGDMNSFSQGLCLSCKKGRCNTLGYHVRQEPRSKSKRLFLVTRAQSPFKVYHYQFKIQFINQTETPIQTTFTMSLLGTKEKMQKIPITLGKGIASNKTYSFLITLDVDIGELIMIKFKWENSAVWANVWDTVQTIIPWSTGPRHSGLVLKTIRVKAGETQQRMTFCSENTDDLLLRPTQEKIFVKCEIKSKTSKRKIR
Experiment: Hepatic Lipase Phospholipase Assay
Type: biochemical
Conditions: ThioPEG substrate, DTNB read at 412 nm, pH 8.3, 37° C., HL 12.5 nM
Protocol: Hepatic Lipase Phospholipase Assay
Efficacy was determined by testing various compounds of the invention in a hepatic lipase and/or endothelial lipase assay discussed below, and disclosed in U.S. patent application Ser. No. 09/609, 871 filed Jul. 3, 2000 incorporated herein in its entirety for U.S Patent Office purposes.
• Substrate Buffer A: 100 mM Hepes, pH 8.3 at 37° C. • Substrate Buffer B: 100 mM Hepes, pH 8.3 at 37° C. with 6.83 mM Triton X100 • ThioPEG: Molecular wt. of 540 • Recombinant Hepatic Lipase • Thiophospholipid: about 0.42 mM thiophospholipid in chloroform • DTNB Solution: about […] DTNB in DMSO (dimethyl sulfoxide) Hepes Buffer A
For Hepes Buffer A, there is 2.4 g Hepes/100 mL water. Therefore 36 grams of Hepes is dissolved in 1500 mL of water. The mix solution's pH is adjusted to pH83 at 37° C. and brought up to 1500 mL with water. 500 mL of Buffer A is retained for the Protein Buffer.
To the remaining 1000 mL of Hepes Buffer A, 4.49 g of Triton X-100 is added and then the combination mixed on a stir plate. It is optimal that stock Buffer A not be too cold or Triton X-100 will take a long time to go into solution
For 0.42 mM substrate stock, use 0.227 mg of thioPEG/mL of Substrate Buffer B. Approximately 20 mg of sn-1 thiol substituted Phosphatidyl Ethylene Glycol (see Examples for preparation method) is weighed into a vial, such as a scintillation vial. Enough chloroform should be added to make a 2.043 mg/mL solution. Sonicate the solution briefly until well dissolved. Next, pipette 1 mL of chloroform/substrate solution into each scintillation vial. This should give enough substrate for one full 96 well plate. Each vial is dried with nitrogen until solvent removed, swirling each vial simultaneously such that a thin film of substrate will be easily reconstituted in each buffer. Each vial is then frozen.
Daily stock preparation is-performed for 9 mL of substrate (one microtiter plate). On the day of the assay, the substrate vial is removed from the freezer and combined with 9 mL of pre-warmed (37° C.) substrate buffer (the final concentration is 0.227 mg/mL). Place the buffer in a 37° C. water bath. Sonicate for 5 minutes or vortex until solution is clear before use.
The enzyme is stored at −80° C. in 100 or 50 μL portions. A 0.406 mg/mL recombinant hepatic lipase and/or endothelial lipase stock requires a 50-fold dilution. Therefore, to a 50 μl or 100 μl enzyme aliquot, 2450 μl or 4900 μl, respectively, of substrate Buffer A (protein buffer) should be added. The enzyme should then be stored on ice until ready to use. The protein concentration of enzyme is about 0.406 mg/mL.
To make a 20 mg/mL stock solution, 2-3 mg of DTNB is weighed and then mixed with an appropriate amount of 100% DMSO (dimethyl sulfoxide) to make the desired concentration. This mixture is sonicated for five minutes.
The above solution should be diluted 10 fold with substrate Buffer B (concentration now 2 mg/mL). Then to the thioPEG substrate solution, add 60 μl of dilute DTNB per mL of thioPEG substrate solution. Thus for 9 mL of substrate, 540 microliters of dilute DTNB (final concentration in substrate solution=0.11 mg/mL).
The test compound is dissolved in pure DMSO at […]. As shown below in Table 2, assay concentrations are 10, 1, 0.1, 0.33, 0.011, 0.0037, 0.0012 and 0.00041 μM.
Using a spectrometer, DTNB is used as a thiol coloring reagent with an incubator temperature of 37° C. Substrate Buffer B is placed in a 37° C. water bath to pre-warm. The substrate is removed from the freezer and 9 mL of substrate Buffer B, 100 mM Hepes, 6.83 mM Tx-100) is added, sonicated for 5 min. and then kept in a 37° C. water bath. Dilutions of the test compound are next made in preparation for assay.
10 μl of the diluted test compound are transferred via pipette into the wells. Control wells receive 10 μl each of 10% DMSO and enzyme solution, while blank wells receive 10 microliters of 10% DMSO and 10 microliters of saline (no enzyme). […]
In the case of `CCCCCNC(=O)n1sc2ccccc2c1=O` [drawing 9], the IC50 is reported as 879 ± 24 nM. `O=C(NC1CCCCC1)n1sc2cc(Cl)ccc2c1=O` gave an IC50 of 419 ± 7 nM. For `O=C(NCCCc1ccccc1)n1sc2ccccc2c1=O` [drawing 20], the IC50 was 430 ± 19 nM. For `CC(C)NC(=O)n1sc2cc(Cl)ccc2c1=O`, the IC50 was 626 ± 20 nM. `Cc1ccccc1CNC(=O)n1sc2ccccc2c1=O` gave an IC50 of 183 ± 6 nM. For `CCCCCCCCNC(=O)n1sc2ccccc2c1=O`, the IC50 was 649 ± 17 nM. `Cc1cccc(CNC(=O)n2sc3ccccc3c2=O)c1` showed an IC50 of 409 ± 14 nM. For `CCCCCCNC(=O)n1sc2cc(Cl)ccc2c1=O`, the IC50 was 333 ± 8 nM. For `CCCCCCCCCCCCNC(=O)n1sc2ccccc2c1=O`, the IC50 was 933 ± 34 nM. In the case of `CC(C)CCCCNC(=O)n1sc2ccccc2c1=O`, the IC50 is reported as 622 ± 19 nM. `Cc1ccc(CNC(=O)n2sc3ccccc3c2=O)cc1` showed an IC50 of 671 ± 18 nM. Compound `O=C(NCc1ccccc1)n1sc2cc(Cl)ccc2c1=O` has an IC50 of 893 ± 48 nM. Work on `CCCCCCNC(=O)n1sc2ccccc2c1=O` yielded an IC50 of 724 ± 16 nM. For `O=C(NCCCCc1ccccc1)n1sc2ccccc2c1=O` [drawing 21], the IC50 was 458 ± 16 nM. In the case of `CCc1cccc(C)c1CNC(=O)n1sc2ccccc2c1=O` [drawing 18], the IC50 is reported as 237 ± 4 nM. `CCCCCNC(=O)n1sc2cc(Cl)ccc2c1=O` gave an IC50 of 532 ± 10 nM. For `CCCCCCCNC(=O)n1sc2ccccc2c1=O`, the IC50 was 757 ± 18 nM. `Cc1cccc(C(C)C)c1CNC(=O)n1sc2ccccc2c1=O` [drawing 19] gave an IC50 of 238 ± 13 nM. For `O=C(NCCCCC1CCCCC1)n1sc2ccccc2c1=O` [drawing 22], the IC50 was 482 ± 21 nM.

Tested on: not given
Experiment: not given
Conditions: not given
In the case of `Cc1cccc(C(C)C)c1CNC(=O)n1sc2ccccc2c1=O` [Example 14, 3-Oxo-3H-benzo[d]isothiazole-2-carboxylic acid 2-isopropyl-6-methyl-benzylamide], the melting point is reported as 102 to 103 °C. In the case of `CCCCCNC(=O)n1sc2ccccc2c1=O` [Example 4, 3-Oxo-3H-benzo[d]isothiazole-2-carboxylic acid pentylamide], the melting point is reported as 42 to 44 °C. In the case of `C=CCNC(=O)n1sc2ccccc2c1=O` [Example 3, 3-Oxo-3H-benzo[d]isothiazole-2-carboxylic acid allylamide], the melting point is reported as 116 to 119 °C. `CCc1cccc(C)c1CNC(=O)n1sc2ccccc2c1=O` [Example 13, 3-Oxo-3H-benzo[d]isothiazole-2-carboxylic acid 2-ethyl-6-methyl-benzylamide] gave a melting point of 102 to 104 °C. With `CCNC(=O)n1sc2ccccc2c1=O` [Example 1, 3-Oxo-3H-benzo[d]isothiazole-2-carboxylic acid ethylamide] the melting point was 123 to 124 °C. Work on `O=C(NCCCCC1CCCCC1)n1sc2ccccc2c1=O` [Example 19, 3-Oxo-3H-benzo[d]isothiazole-2-carboxylic acid (4-cyclohexyl-butyl)-amide] yielded a melting point of 76 to 78 °C. For `CCCNC(=O)n1sc2ccccc2c1=O` [Example 2, 3-Oxo-3H-benzo[d]isothiazole-2-carboxylic acid propylamide], the melting point was 90 to 91 °C. Work on `O=C(NCCCCc1ccccc1)n1sc2ccccc2c1=O` [Example 18, 3-Oxo-3H-benzo[d]isothiazole-2-carboxylic acid (4-phenyl-butyl)-amide] yielded a melting point of 119 to 120 °C. Work on `O=C(NCCc1ccccc1)n1sc2ccccc2c1=O` [Example 15, 3-Oxo-3H-benzo[d]isothiazole-2-carboxylic acid phenethylamide] yielded a melting point of 153 to 155 °C. For `O=C(NCCCc1ccccc1)n1sc2ccccc2c1=O` [Example 17, 3-Oxo-3H-benzo[d]isothiazole-2-carboxylic acid (3-phenyl-propyl)-amide], the melting point was 109 to 111 °C.

Reference: US7595403B2, “Benzisothiazol-3-one-carboxylic acid amides as phospholipase inhibitors” (Eli Lilly and Company, priority 2003, dated 2009)
